Here are results for nine compounds from PubChem BioAssay (NCI).

Some test systems named below: MDA-MB-435; LOX IMVI melanoma; UACC-62 melanoma; OVCAR-8 ovarian; SNB-75 CNS; OVCAR-3 ovarian; SR leukemia; KM12 colon.
What all share (experiment): NCI-60 cell line screen, 48 h

“And” between values parts separate entries of the source, which are not always exact repeats. Equal entries are not always repeated.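 These data come from cells grown in 96-well plates and exposed to compound for 48 hours at five concentrations. Abbreviation: GI50, concentration required for 50% inhibition of growth. Definition used: TGI = concentration required for complete inhibition of growth.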

`COc1ccc(-c2ncnc3c2ncn3CC#CCCl)cc1`: the GI50 was 2.71 µM in the assay with MDA-MB-435; 1.77 µM in the assay with LOX IMVI melanoma; 3.32 µM in the assay on UACC-62 melanoma; 11.6 µM in the assay with OVCAR-8 ovarian; 1.64 µM with SNB-75 CNS; 1.93 µM in the assay on OVCAR-3 ovarian. The GI50 with SR leukemia is 5.24 µM; with KM12 colon, 4.85 µM. The TGI in the assay on MDA-MB-435 is 11.5 µM; in the assay with LOX IMVI melanoma, 3.52 µM; in the assay with UACC-62 melanoma, 15.2 µM; with OVCAR-8 ovarian, greater than 100 µM; in the assay with SNB-75 CNS it was 4.84 µM; with OVCAR-3 ovarian, 5.75 µM. Further, the figures for the TGI with SR leukemia and in the assay with KM12 colon were greater than 100 µM and 17.5 µM, respectively.
Take `CCOC(=O)c1ccc(-n2cnc(-c3ccc([N+](=O)[O-])cc3)c2)cc1`: the TGI in the assay with MDA-MB-435, with LOX IMVI melanoma, in the assay on UACC-62 melanoma, in the assay with OVCAR-8 ovarian, in the assay with SNB-75 CNS and with OVCAR-3 ovarian was greater than 100 µM each time. Moreover, the TGI in the assay with SR leukemia and with KM12 colon was greater than 100 µM each time.
As for `O=C1c2c(c(=O)[nH]c3ccccc23)[C@H](c2ccccc2)[C@@H]2CCCN12`, the GI50 in the assay with MDA-MB-435 is 3.7 µM; in the assay with LOX IMVI melanoma, 2.3 µM; in the assay on UACC-62 melanoma it was 3.14 µM; with OVCAR-8 ovarian, 3.62 µM; in the assay with SNB-75 CNS it was 2.64 µM; in the assay on OVCAR-3 ovarian, 2.46 µM. The GI50 was 2.61 µM in the assay with SR leukemia and 3.08 µM with KM12 colon. In addition, the TGI with MDA-MB-435 is 15.2 µM; in the assay with LOX IMVI melanoma, 11.8 µM; with UACC-62 melanoma it was 22.3 µM; with OVCAR-8 ovarian it was greater than 100 µM; with SNB-75 CNS, 16.9 µM; in the assay with OVCAR-3 ovarian, 7.1 µM. Besides, the TGI came out at 36.7 µM in the assay on SR leukemia and 13.6 µM in the assay on KM12 colon.
In the case of `NCCCCC(NC(=O)C(N)CCCN=C(N)N)C(=O)NC(CCCCN)C(=O)NC(CCCN=C(N)N)C(=O)NC(CCCN=C(N)N)C(=O)NC(CCC(N)=O)C(=O)NC(CCCN=C(N)N)C(=O)NC(CCCN=C(N)N)C(=O)NC(CCCN=C(N)N)C(=O)NCC(=O)NCC(=O)O` (stereo not drawn), the GI50 in the assay with MDA-MB-435, with LOX IMVI melanoma, in the assay on UACC-62 melanoma, in the assay with OVCAR-8 ovarian, in the assay on SNB-75 CNS and in the assay on OVCAR-3 ovarian was greater than 50 µM in each case. Also, the GI50 in the assay on SR leukemia and in the assay with KM12 colon was greater than 50 µM throughout. In addition, the TGI in the assay with MDA-MB-435, in the assay with LOX IMVI melanoma, in the assay on UACC-62 melanoma, in the assay with OVCAR-8 ovarian, in the assay on SNB-75 CNS and in the assay on OVCAR-3 ovarian was greater than 50 µM throughout. Further, the TGI with SR leukemia and in the assay on KM12 colon was greater than 50 µM each time.
In the case of `CCSC[C@@H]1C[C@](O)(c2ccc(Cl)cc2)[C@@H](c2ccc(Cl)cc2)O1`, the GI50 in the assay on MDA-MB-435 was 19.2 µM; in the assay on LOX IMVI melanoma, 18.5 µM; with UACC-62 melanoma, 13.9 µM; in the assay on OVCAR-8 ovarian it was 17.4 µM; with SNB-75 CNS it was 16.3 µM; with OVCAR-3 ovarian it was 18.8 µM. Moreover, the values for the GI50 with SR leukemia and with KM12 colon were 11.1 µM and 15.4 µM, respectively. The TGI with MDA-MB-435 came out at 40.1 µM; in the assay on LOX IMVI melanoma it was 40.7 µM; in the assay with UACC-62 melanoma it was 30.8 µM; in the assay with OVCAR-8 ovarian, 45 µM; in the assay on SNB-75 CNS, 32.4 µM; with OVCAR-3 ovarian, 36.1 µM. For the same compound, the TGI in the assay on SR leukemia was 28.2 µM; with KM12 colon it was 30.9 µM.
As for `C=CCC1(C(=O)OC)CCC/C(=N\O)C1` (stereo not drawn), the TGI with MDA-MB-435, in the assay with LOX IMVI melanoma, in the assay on UACC-62 melanoma, with OVCAR-8 ovarian, with SNB-75 CNS and with OVCAR-3 ovarian was greater than 10 µM each time. The TGI in the assay on SR leukemia and with KM12 colon was greater than 10 µM throughout.
`CCC1=C(c2ccc(OC)cc2)C(C)(C)Oc2c1ccc(O)c2CN1CCCC1`: the GI50 was 1.71 µM in the assay with MDA-MB-435; 1.46 µM in the assay on LOX IMVI melanoma; 1.81 µM with UACC-62 melanoma; 2.11 µM in the assay on OVCAR-8 ovarian; 1.66 µM in the assay on SNB-75 CNS; 4.13 µM with OVCAR-3 ovarian. Also, the GI50 in the assay with SR leukemia was 0.927 µM; in the assay with KM12 colon it was 1.91 µM. Also, the TGI in the assay on MDA-MB-435 stood at 4.03 µM; in the assay on LOX IMVI melanoma, 2.8 µM; in the assay on UACC-62 melanoma it was 3.86 µM; in the assay with OVCAR-8 ovarian, 4.94 µM; in the assay with SNB-75 CNS, 87.4 µM; in the assay with OVCAR-3 ovarian it was 36.2 µM. Besides, the values for the TGI with SR leukemia and in the assay on KM12 colon were 3.63 µM and 3.9 µM, respectively.
For `Cc1c(Cn2c(C)nc3c(C(=O)O)cc(N4CCOCC4)cc32)cccc1C(F)(F)F`, the GI50 in the assay on MDA-MB-435 is 66 µM; in the assay on LOX IMVI melanoma it was 60.7 µM; in the assay with UACC-62 melanoma, 21.1 µM; with OVCAR-8 ovarian, 33.7 µM; with SNB-75 CNS it was 12.3 µM; with OVCAR-3 ovarian it was 52.3 µM. Besides, the GI50 in the assay with SR leukemia is 51.3 µM; with KM12 colon it was 56.7 µM. The TGI in the assay on MDA-MB-435, with LOX IMVI melanoma, with UACC-62 melanoma, in the assay on OVCAR-8 ovarian, in the assay with SNB-75 CNS and in the assay on OVCAR-3 ovarian was greater than 100 µM each time. The TGI with SR leukemia and in the assay with KM12 colon was greater than 100 µM each time.
Regarding `Cc1c(CN2CCN(C(=O)[C@H](C)O)CC2)sc2c(N3CCOCC3)nc(-c3cnc(N)nc3)nc12`, the GI50 in the assay with MDA-MB-435 is 0.285 µM and 0.186 µM; with LOX IMVI melanoma it was 0.153 µM and 0.179 µM; with UACC-62 melanoma it was 0.1 µM and 0.11 µM; with OVCAR-8 ovarian it was 0.631 µM and 0.26 µM; in the assay on SNB-75 CNS it was 0.0317 µM and 0.0235 µM; with OVCAR-3 ovarian, 0.202 µM and 0.182 µM. Moreover, the GI50 with SR leukemia is 0.365 µM and 0.262 µM; with KM12 colon it was 0.755 µM and 0.393 µM. Further, the TGI is 3.16 µM and 1.38 µM in the assay with MDA-MB-435; 3.05 µM and 2.64 µM in the assay on LOX IMVI melanoma; 0.917 µM and 0.467 µM with UACC-62 melanoma; > 10 µM and 2.34 µM in the assay on OVCAR-8 ovarian; 0.67 µM and 0.255 µM in the assay on SNB-75 CNS; 5.4 µM and 2.18 µM in the assay on OVCAR-3 ovarian. In addition, the TGI was > 10 µM and 3.88 µM with SR leukemia; > 10 µM and 15.2 µM in the assay on KM12 colon.
